What follows are compounds tested on T-cell factor (TCF)-luciferase reporter using Wnt pathway as index (assay: Inhibitory activity against TCF-luciferase reporter using Wnt pathway as index (DLD-1/TCF-Luc cells)). Conditions: 1 μmol/L; DLD-1/TCF-Luc cells; luciferase activity after 18 hours.
Assay type: cell-based, human
Description: Test Example 1: Inhibitory Activity Against T-Cell Factor (TCF)-Luciferase Reporter Using Wnt Pathway as Index
The inhibitory activity of test compounds against Wnt pathway was evaluated by the following method.
A human colorectal adenocarcinoma cell line DLD-1 (Japanese Collection of Research Bioresources) was cultured in RPMI-1640 medium (Gibco/Life Technologies, Inc.) containing 10% fetal bovine serum (Gibco/Life Technologies, Inc.), 10 mmol/L of a 4-(2-hydroxyethyl)-1-piperazineethanesulfonic acid (HEPES) buffer solution (Gibco/Life Technologies, Inc.), 1 mmol/L of a sodium pyruvate solution (Gibco/Life Technologies, Inc.), 4.5 g/L of a D-(+)-glucose solution (Sigma-Aldrich, Inc.), 100 units/mL penicillin (Gibco/Life Technologies, Inc.) and 100 μg/mL of streptomycin (Gibco/Life Technologies, Inc.) under the conditions of 37° C. and 5% carbon dioxide gas. The DLD-1 cells were seeded in a 10 cm dish, and 20 μg of a luciferase gene plasmid pGL4.27 having a TCF responsive sequence inserted therein was transfected into the cells using 10 μL of Attractene (Qiagen, Inc.) according to the protocol attached to the product. A stably expressing cell line (DLD-1/TCF-Luc) was selected using […] of hygromycin B (Wako Pure Chemical Industries Ltd.). The DLD-1/TCF-Luc cells were detached with trypsin and seeded in a 384-well plate, and a test compound was added at different concentrations. After 18 hours, the luciferase activity was measured using Steady-Glo™ Luciferase Assay System (Promega, Inc.).
The inhibition ratio was obtained according to the following formula 1. The inhibition ratio (%) of the compound of the present invention at 1 μmol/L against the TCF-luciferase reporter using the Wnt pathway as an index is shown in Table 6. [Math. 1] Inhibition ratio (%)=100−{(luciferase activity when test compound was added)−(luciferase activity of blank)}/{(luciferase activity of control)−(luciferase activity of blank)}×100 Formula 1

Row | Compound | Inhibition ratio (%) at 1 μmol/L [%]
1 | 4-(3-{[1-(6-Aminopyrimido[3,4-d]pyrimidin-4-yl)piperidin-4-yl]methyl}-2-oxo-3,4-dihydroquinazolin-1(2H)-yl)picolinonitrile [Compound 33] | 82
2 | N#Cc1ccccc1CN1C(=O)N(CC2CCN(c3ncnc4cc5c(cc34)OCO5)CC2)Cc2ccccc21 [Compound 3, 2-[(3-{[1-([1,3]Dioxo[4,5-g]quinazolin-8-yl)piperidin-4-yl]methyl}-2-oxo-3,4-dihydroquinazolin-1(2H)-yl)methyl]benzo nitrile] | 77
3 | CNC(=O)c1ccc2c(N3CCC(CN4Cc5ccccc5N(c5cccc(C#N)c5)C4=O)CC3)ncnc2c1 [Compound 26, 4-(4-{[1-(3-Cyanophenyl)-2-oxo-1,2-dihydroquinazolin-3(4H)-yl]methyl}piperidin-1-yl)-N-methylquinazoline-7-carboxamido] | 77
4 | N#Cc1cc(N2C(=O)N(CC3CCN(c4ncnc5cc(C(N)=O)ccc45)CC3)Cc3ccccc32)ccn1 [Compound 28, 4-(4-{[1-(2-Cyanopyridin-4-yl)-2-oxo-1,2-dihydroquinazolin-3(4H)-yl]methyl}piperidin-1-yl)quinazoline-7-carboxamido] | 84
5 | N#Cc1cc(N2C(=O)N(CC3CCN(c4ncnc5cnc(C(N)=O)cc45)CC3)Cc3ccccc32)ccc1F [Compound 45, 4-(4-{[1-(3-Cyano-4-fluorophenyl)-2-oxo-1,2-dihydroquinazolin-3(4H)-yl]methyl}piperidin-1-yl)pyrido[3,4-d]pyrimidine-6-carboxamido] | 86
6 | N#Cc1cc(N2C(=O)N(CC3CCN(c4ncnc5cnc(C(N)=O)cc45)CC3)Cc3ncccc32)ccc1F [Compound 46, 4-(4-{[1-(3-Cyano-4-fluorophenyl)-2-oxo-1,2-dihydropyrido[3,2-d]pyrimidin-3(4H)-yl]methyl}piperidin-1-yl)pyrido[3,4-d]pyrimidine-6-carboxamido] | 84

Same assay, conditions: Homo sapiens, DLD-1, 18 h, read-out: Inhibition ratio (%) at 1 μmol/L

Row | Compound | inhibition at 1 µM [%]
7 | CN1CCN(C(=O)c2ccc3c(N4CCC(CN5Cc6ccccc6N(c6ccnc(C#N)c6)C5=O)CC4)ncnc3c2)CC1 [Compound 27, 4-[3-({1-[7-(4-Methylpiperazine-1-carbonyl)quinazolin-4-yl]piperidin-4-yl}methyl)-2-oxo-3,4-dihydroquinazolin-1(2H)-yl]picolinonitrile] | 88
8 | N#Cc1cc(N2C(=O)N(CC3CCN(c4ncnc5[nH]ccc45)CC3)Cc3ccccc32)ccn1 [Compound 31, 4-(3-{[1-(7H-pyrrolo[2,3-d]pyrimidin-4-yl)piperidin-4-yl]methyl}-2-oxo-3,4-dihydroquinazolin-1(2H)-yl)picolinonitrile] | 74
9 | N#Cc1cc(N2C(=O)N(CC3CCN(c4nccn5c(=O)[nH]nc45)CC3)Cc3ccccc32)ccn1 [Compound 39, 4-(2-Oxo-3-{[1-(3-oxo-2,3-dihydro-[1,2,4]triazolo[4,3-a]pyrazin-8-yl)piperidin-4-yl]methyl}-3,4-dihydroquinazolin-1(2H)-yl)picolinonitrile] | 89
10 | N#Cc1cc(N2C(=O)N(CC3CCN(c4nccc5c(=O)[nH]cnc45)CC3)Cc3ccccc32)ccn1 [Compound 42, 4-(2-Oxo-3-{[1-(4-oxo-3,4-dihydropyrido[3,4-d]pyrimidin-8-yl)piperidin-4-yl]methyl}-3,4-dihydroquinazolin-1(2H)-yl)picolinonitrile] | 81
11 | N#Cc1cccc(N2C(=O)N(CC3CCN(c4ncnc5c4COCC5)CC3)Cc3ccccc32)c1 [Compound 43, 3-(3-{[1-(7,8-Dihydro-5H-pyrano[4,3-d]pyrimidin-4-yl)piperidin-4-yl]methyl}-2-oxo-3,4-dihydroquinazolin-1(2H)-yl)benzonitrile] | 85

Same assay, conditions: Homo sapiens; 1 μmol/L; DLD-1/TCF-Luc cells; luciferase activity after 18 hours; read-out: Inhibition ratio (%) at 1 μmol/L

Row | Compound | inhibition at 1 µM [%]
12 | N#Cc1ccccc1CN1C(=O)N(CC2CCN(c3nnnc4ccccc34)CC2)Cc2ccccc21 [Compound 4, 2-[(3-{[1-(Benzo[d][1,2,3]triazin-4-yl)piperidin-4-yl]methyl}-2-oxo-3,4-dihydroquinazolin-1(2H)-yl)methyl]benzonitrile] | 74
13 | COc1cc2ncnc(N3CCC(CN4Cc5ccccc5N(c5cccc(C#N)c5)C4=O)CC3)c2cc1OC [Compound 6, 3-(3-{[1-(6,7-Dimethoxyquinazolin-4-yl)piperidin-4-yl]methyl}-2-oxo-3,4-dihydroquinazolin-1(2H)-yl)benzonitrile] | 76
14 | COc1cc2ncnc(N3CCC(CN4Cc5ccccc5N(c5cc(C#N)ccn5)C4=O)CC3)c2cc1OC [Compound 10, 2-(3-{[1-(6,7-Dimethoxyquinazolin-4-yl)piperidin-4-yl]methyl}-2-oxo-3,4-dihydroquinazolin-1(2H)-yl)isonicotinonitrile] | 79
15 | COc1cc2ncnc(N3CCC(CN4Cc5ccccc5N(c5ccnc(C#N)n5)C4=O)CC3)c2cc1OC [Compound 11, 4-(3-{[1-(6,7-Dimethoxyquinazolin-4-yl)piperidin-4-yl]methyl}-2-oxo-3,4-dihydroquinazolin-1(2H)-yl)pyrimidine-2-carbonitrile] | 87
16 | COc1cc2ncnc(N3CCC(CN4Cc5ccccc5N(c5ccnc(C(N)=O)c5)C4=O)CC3)c2cc1OC [Compound 14, 4-(3-{[1-(6,7-Dimethoxyquinazolin-4-yl)piperidin-4-yl]methyl}-2-oxo-3,4-dihydroquinazolin-1(2H)-yl)picolinamide] | 76
17 | COc1cc2ncnc(N3CC(CN4Cc5ccccc5N(c5ccnc(C#N)c5)C4=O)C3)c2cc1OC [Compound 17, 4-(3-{[1-(6,7-Dimethoxyquinazolin-4-yl)azetidin-3-yl]methyl}-2-oxo-3,4-dihydroquinazolin-1(2H)-yl)picolinonitrile] | 76
18 | COc1cc2ncnc(N3CCC(NC4Cc5ccccc5N(c5ccnc(C#N)c5)C4=O)CC3)c2cc1OC (centres unmarked) [Compound 19, 4-{3-[1-(6,7-Dimethoxyquinazolin-4-yl)piperidin-4-ylamino]-2-oxo-3,4-dihydroquinolin-1(2H)-yl}picolinonitrile] | 91
19 | COc1cc2ncnc(N3CCC(Cn4c(=O)c5ccccc5n(-c5cccc(C#N)c5)c4=O)CC3)c2cc1OC [Compound 20, 3-(3-{[1-(6,7-Dimethoxyquinazolin-4-yl)piperidin-4-yl]methyl}-2,4-dioxo-3,4-dihydroquinazolin-1(2H)-yl)benzonitrile] | 83
20 | N#Cc1cc(N2C(=O)N(CC3CCN(c4ncnc5cnccc45)CC3)Cc3cc(F)cnc32)ccn1 [Compound 23, 4-(6-Fluoro-2-oxo-3-{[1-(pyrido[3,4-d]pyrimidin-4-yl)piperidin-4-yl]methyl}-3,4-dihydropyrido[2,3-d]pyrimidin-1(2H)-yl)picolinonitrile] | 84
21 | N#Cc1cc(N2C(=O)N(CC3CCN(c4nccc5nc[nH]c(=O)c45)CC3)Cc3cc(F)ccc32)ccn1 [Compound 49, 4-(6-Fluoro-2-oxo-3-{[1-(4-oxo-3,4-dihydropyrido[4,3-d]pyrimidin-5-yl)piperidin-4-yl]methyl}-3,4-dihydroquinazolin-1(2H)-yl)picolinonitrile] | 82
22 | N#Cc1ccc2c(c1)CN(CC1CCN(c3nccc4nc[nH]c(=O)c34)CC1)C(=O)N2c1ccnc(C(N)=O)c1 [Compound 51, 4-(6-Cyano-2-oxo-3-{[1-(4-oxo-3,4-dihydropyrido[4,3-d]pyrimidin-5-yl)piperidin-4-yl]methyl}-3,4-dihydroquinazolin-1(2H)-yl)picolinamide] | 90
23 | N#Cc1cc(N2C(=O)N(CC3CCN(c4ncnc5cc(C(N)=O)ncc45)CC3)Cc3cnccc32)ccc1F [Compound 52, 4-(4-{[1-(3-Cyano-4-fluorophenyl)-2-oxo-1,2-dihydropyrido[4,3-d]pyrimidin-3(4H)-yl]methyl}piperidin-1-yl)pyrido[4,3-d]pyrimidine-7-carboxamido] | 81

From patent publication US9771351B2, “Wnt signaling inhibitor” (KYOWA HAKKO KIRIN CO., LTD., priority 2013, dated 2017)
